Assays:
Format in all cases: physicochemical
[1] = Powder flow properties: bulk density, tapped density, compressibility (modified USP procedure); settings: for Percent Compressibility: computed from bulk density and tapped density (equation 3)
Description: Bulk densities of selected samples were measured using a modified USP procedure. A mass of sample (M), typically 0.5 g, was passed through a No. 18 test sieve (ASTM USA Standard Test Sieve, Fischer Scientific) into a tared 10 mL graduated cylinder. The powder was carefully leveled and the unsettled apparent volume (Vo) was read to the nearest 0.05 mL. The bulk density (ρb) was then calculated using equation 1: [formula] Each bulk density measurement was performed in triplicate, and the average value was reported. Tapped densities of selected samples were also obtained using a modified USP procedure. After the bulk density had been determined from the procedure described above, the graduate cylinder was mechanically tapped by raising the cylinder and allowing it to drop under its own weight using an apparatus that provided a fixed drop height of 14±2 mm. The nominal tap rate was 60 drops per minute. The cylinder was initially tapped 500 times and the tapped volume (VT) was read to the nearest 0.05 mL. The procedure was then repeated, in increments of 500 taps, until the difference between succeeding measurements was less than 2%. The tapped density (ρt) was then calculated using equation 2: [formula] Each tapped density measurement was performed in triplicate, and the average values for each sample is reported. Powder compressibility was computed from the bulk density and tapped density using equation 3: [formula] Determination of Griseofulvin Content in the Powder Samples
Powder flow properties, as represented by the bulk density, tapped density, and percent compressibility, were determined for selected samples and are shown in Table 2.0, in which GF is griseofluvin and the PSA:GF ratio was based on the original mass charged to the crystallizer. Absent values from the table indicate inadequate sample volume for the measurement technique.

[2] = Short term stability study at ICH conditions, characterised by XRPD
Description: A short term stability study was conducted at two International Conference on Harmonization (ICH) stability conditions, i.e. 25° C./60% relative humidity and 40° C./75% relative humidity. A thin layer of powder was placed in a 20 mL capped glass scintillation vial, and the vials were placed in a sealed desicator that was set to either 25 or 40° C., and to the desired relative humidity over the appropriate saturated salt solution^32. Relative humidities of 60% and 75% were obtained using sodium bromide or sodium chloride, respectively. After initial storage (4 days), the samples were removed and characterized by XRPD. The samples were then returned to appropriate desicator and stored for another 19 days with the caps removed. Final sample characterization was by SEM and XRPD.

[3] = BET surface area measurement (nitrogen adsorption at 77 K); settings: nitrogen adsorbate, PSA:GF ratio based on mass charged to crystallizer
Description: A Quantachrome Autosorb-IC (Boynton Beach, Fla.) was used to measure surface areas of the samples at 77 K. A known amount of powder (typically 500 mg) was loaded into a Quantachrome powder cell and outgassed for about 1 hr. Nitrogen was used as the adsorbate, and the equations derived by Brunauer, Emmett, and Teller (BET) were used by the software provided with the instrument to calculate the specific surface areas.

SMILES: COC1=CC(=O)C[C@@H](C)[C@]12Oc1c(Cl)c(OC)cc(OC)c1C2=O [Bulk GF, griseofulvin]
- Bulk Density ([1]; average of triplicate): 0.2 ± 0.02 g/mL
- Tapped Density ([1]; average of triplicate, tapped in increments of 500 taps): 0.4 ± 0.02 g/mL
- Percent Compressibility [1]: 49 +/− 3%
- Percent Compressibility ([1]; listed as bulk griseofulvin): 49±3%
- XRPD diffraction pattern after storage (phase change) ([2]; stored for 23 days at 25° C./60% RH): No new peaks
- XRPD diffraction pattern after storage (phase change) ([2]; stored for 23 days at 40° C./75% RH): No new peaks
- BET-Surface Area [3]: 2.98 m^2/g

Source: patent US20060078573A1, “Methods of modifying crystal habit” (priority 2004, published 2006)
